Results taken from article PMC9267128, “New 2-[(4-Amino-6-N-substituted-1,3,5-triazin-2-yl)methylthio]-N-(imidazolidin-2-ylidene)-4-chloro-5-methylbenzenesulfonamide Derivatives, Design, Synthesis and Anticancer Evaluation” (International Journal of Molecular Sciences, 2022).

How the values were obtained:
HCT-116 (colon cancer) = test: MTT cell viability assay, HCT-116; type: cell-based, human; conditions: for IC50: Homo sapiens, HCT-116, 72 h, MTT assay, 72 h of incubation; for Selectivity Index (SI) HCT-116: IC50 value toward HaCaT cells/IC50 value toward HCT-116
Outline: (§1)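 HCT-116 and HeLa cells in DMEM/10% FBS exposed 72 h to compounds over 1–100 µM. Viability by MTT (0.5 mg/mL, 2 h, 37 °C), formazan dissolved in DMSO and read at 550 nm; mean ± SD of at least three independent experiments.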

[1] = test system: SKOV3 (ovarian carcinoma cell line); test: MTT assay, mutant p53 ovarian cancer cells SKOV-3; type: cell-based; conditions: Homo sapiens, SK-OV-3, 72 h of incubation
Experimental: (§2) Thus, the ability of the selected compounds to exert cytotoxic activity toward cell lines harboring mutant p53 was examined. Compounds displaying a high selectivity index (Table 6) were selected for the analysis of their activity toward ovarian and breast cancer cells with wild-type p53 (A2780, MCF-7) and mutant p53 (SKOV-3, T47D).
(§3) Cell viability was examined using the MTT [3-(4,5-dimethylthiazol-2-yl)-2,5-diphenyltetrazolium bromide] assay. Cells were seeded in 96-well plates at a density of 3 × 10^3 cells/well and treated for 72 h with the tested compounds in the concentration range of 1–100 µM. Then, MTT (0.5 mg/mL) was added to the medium and cells were further incubated for 2 h at 37 °C. In the next stage, cells were lysed with DMSO and the absorbance of the formazan solution was measured at 550 nm with a plate reader (1420 multilabel counter, Victor, Jügesheim, Germany). The experiment was performed in triplicate. Values are expressed as the mean ± SD of at least three independent experiments. Cisplatin was used as a positive control.
(§4) Compounds 48, 62, 134, 138 and 140 were further examined toward MCF7 (breast cancer cell line, ATCC, HTB-22), T47D (breast cancer cell line, DSMZ ACC 739), A2780 (ovarian carcinoma cell line, ECACC, 93112519), and SKOV3 (ovarian carcinoma cell line, ATCC, HTB-77) cells. Cells were grown in Dulbecco’s Modified Eagle Medium (DMEM) supplemented with 10% fetal bovine serum (Thermo Fisher Scientific).

[2] = test system: T47D (breast cancer cell line); test: MTT assay, mutant p53 breast cancer cells T47D; type: cell-based; conditions: Homo sapiens, T47D, 72 h of incubation
Experimental: as §2, §3, §4

MDM2-p53 interactions = test: Western blot of MDM2 and p53 protein levels in MCF-7 cells; type: cell-based, human; conditions: 4 µM and 10 µM, 24-h incubation
Experimental: Thus, the effects of the examined compounds on the inhibition of MDM2-p53 interactions were examined. MDM2 and p53 protein levels were determined with Western blot analysis after the treatment of MCF-7 cells with compounds selected for their high selectivity index (48, 62, 134, 138, and 140). Compounds were examined at different concentrations (4 µM and 10 µM) following a 24-h incubation (Figure 7).
Proteins were transferred to an Immobilon-P PVDF membrane (Merck Millipore, Burlington, MA, USA). The membranes were incubated for 1 h using 5% low-fat milk solution in 1× TBS (50 mM Tris-Cl, pH 7.5, 150 mM NaCl) as a blocking buffer and then overnight at 4 °C in the same blocking solution containing one of the following antibodies: anti-MDM2 (rabbit, Sigma-Aldrich AB-166, Burlington, MA, USA), anti-p53 (rabbit, Sigma-Aldrich S15) or α-tubulin (rabbit, 11H10, Cell Signaling, Danvers, MA, USA). After washing (3 × 10 min in TBS), membranes were incubated for 2 h in room temperature with the adequate HRP-conjugated secondary antibody: goat anti-rabbit IgG (1:5000, Abcam, Cambridge, UK; cat. 97051). Membranes were developed using an HRP detection kit WesternBright Quantum (Advansta, San Jose, CA, USA; cat. K-12042).

MCF-7 (breast cancer) = test: MTT cell viability assay, MCF-7; type: cell-based, human; conditions: for IC50: Homo sapiens, MCF7, 72 h, MTT assay, 72 h of incubation; for Selectivity Index (SI) MCF-7: IC50 value toward HaCaT cells/IC50 value toward MCF-7
Outline: (§5)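 Cells in DMEM with 10% FBS, 3 × 10^3 per well, exposed to compounds at 1–100 µM for 72 h at 37 °C. MTT at 0.5 mg/mL for 2 h, formazan dissolved in DMSO and read at 550 nm. Mean ± SD of at least three independent experiments, each in triplicate.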

[3] = test system: A2780 (ovarian carcinoma cell line); test: MTT assay, wild-type p53 ovarian cancer cells A2780; type: cell-based; conditions: Homo sapiens, A2780, 72 h of incubation
Experimental: as §2, §3, §4

HeLa (cervical cancer) = test: MTT cell viability assay, HeLa; type: cell-based, human; conditions: for IC50: Homo sapiens, HeLa, MTT assay, 72 h of incubation; for Selectivity Index (SI) HeLa: IC50 value toward HaCaT cells/IC50 value toward HeLa
Outline: as §1

[4] = test system: HaCaT (human keratinocyte cell line); test: MTT cell viability assay, non-cancerous HaCaT; type: cell-based; conditions: Homo sapiens, HaCaT, 72 h, 72 h of incubation, non-cancerous keratinocytes
Outline: as §5

[5] = test system: MCF7 (breast cancer cell line, ATCC, HTB-22); test: MTT assay, wild-type p53 breast cancer cells MCF-7 (Table 11); type: cell-based, human; conditions: Homo sapiens, MCF7; 72 h of incubation, wild-type p53, second determination
Experimental: as §2, §3, §4

Row | IC50 (HCT-116 (colon cancer)) [µM] | IC50 [1] [µM] | IC50 [2] [µM] | IC50 (MCF-7 (breast cancer)) [µM] | IC50 [3] [µM] | IC50 (HeLa (cervical cancer)) [µM] | IC50 [5] [µM] | SMILES | Selectivity Index (SI) HCT-116 (HCT-116 (colon cancer)) | MDM2 and p53 protein levels (MDM2-p53 interactions) | Selectivity Index (SI) MCF-7 (MCF-7 (breast cancer)) | Selectivity Index (SI) HeLa (HeLa (cervical cancer)) | IC50 [4] [µM]
1 | 5 ± 0.2 | 5.7 ± 0.1 | 3.2 ± 0.1 | 11 ± 0.1 | 3.9 ± 0.1 | 10 ± 0.6 | 7.8 ± 0.1 | Cc1cc(S(=O)(=O)N=C2NCCN2Cc2ccc(C(F)(F)F)cc2)c(SCc2nc(N)nc(N3CCN(c4ccc(C(F)(F)F)cc4)CC3)n2)cc1Cl [Compound 134] | 4.4 | no changes | 2.0 | 2.2 | 22 ± 1
2 | 6 ± 0.1 | 10.1 ± 0.1 | 4.9 ± 0.1 | 7 ± 0.1 | 3.9 ± 0.1 | 107 ± 1 | 10.4 ± 0.1 | Cc1cc(S(=O)(=O)N=C2NCCN2Cc2ccccc2)c(SCc2nc(N)nc(N3CCN(c4ccc(Cl)cc4)CC3)n2)cc1Cl [Compound 62] | 5.3 | no changes | 4.5 | 0.3 | 32 ± 1
